This is an account of results in patent US20240158370A1, “CK1 alpha AND DUAL CK1 alpha / GSPT1 DEGRADING COMPOUNDS” (Innovo Therapeutics, Inc., priority 2022, published 2024).

Holding throughout (assay type): cell-based
The target of one assay is GSPT1 (Homo sapiens, UniProt P15170+Q96SW2). As to the kind of experiment: HiBiT degradation assay, GSPT1, Procedure B (Molt 4_hGSPT1_HiBIT cells). Also noted: Molt 4_hGSPT1_HiBIT N-terminus tagged cells were generated using CRISPR technology; endogenous in cells; host or cells: Molt 4 cells, CRISPR-edited. The note with it: six hours. The essentials: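 CRISPR N-terminal HiBiT-tagged Molt 4 cells at 1×10^6 cells/ml were treated 6 h at 37° C with compounds (10-point, 10 μM to 0.005 μM, 0.1% DMSO). Remaining HiBiT-GSPT1 was read by lytic luminescence; DC50 and Ymin (% remaining) from a 4-parameter fit.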
Chain of GSPT1 (P15170 whole entry): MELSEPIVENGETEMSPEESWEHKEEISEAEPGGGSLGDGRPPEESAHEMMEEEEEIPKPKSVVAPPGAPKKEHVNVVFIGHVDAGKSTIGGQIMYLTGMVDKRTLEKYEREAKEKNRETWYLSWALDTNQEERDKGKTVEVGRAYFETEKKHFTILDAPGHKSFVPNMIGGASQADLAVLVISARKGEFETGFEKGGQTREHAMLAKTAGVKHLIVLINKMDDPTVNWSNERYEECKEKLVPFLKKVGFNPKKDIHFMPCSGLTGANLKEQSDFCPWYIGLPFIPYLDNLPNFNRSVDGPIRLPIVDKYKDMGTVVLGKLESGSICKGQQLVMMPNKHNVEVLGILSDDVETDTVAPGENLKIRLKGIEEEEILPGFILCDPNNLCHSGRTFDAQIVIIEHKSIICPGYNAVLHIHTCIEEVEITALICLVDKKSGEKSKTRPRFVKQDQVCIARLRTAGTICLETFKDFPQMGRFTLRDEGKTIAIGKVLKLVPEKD
Chain of GSPT1 (Q96SW2 whole entry): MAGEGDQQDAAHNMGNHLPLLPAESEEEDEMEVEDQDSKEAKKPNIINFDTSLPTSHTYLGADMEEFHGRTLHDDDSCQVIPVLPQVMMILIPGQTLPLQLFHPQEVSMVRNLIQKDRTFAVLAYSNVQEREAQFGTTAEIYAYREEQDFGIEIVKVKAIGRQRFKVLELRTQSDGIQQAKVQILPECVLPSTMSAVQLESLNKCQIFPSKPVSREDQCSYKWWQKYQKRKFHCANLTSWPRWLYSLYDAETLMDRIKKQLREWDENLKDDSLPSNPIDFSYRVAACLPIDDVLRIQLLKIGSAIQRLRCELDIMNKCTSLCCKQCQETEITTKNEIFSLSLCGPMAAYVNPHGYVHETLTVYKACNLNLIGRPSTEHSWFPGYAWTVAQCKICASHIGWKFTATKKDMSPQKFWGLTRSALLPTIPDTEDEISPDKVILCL
Chain of GSPT1 (Q16531 whole entry partner): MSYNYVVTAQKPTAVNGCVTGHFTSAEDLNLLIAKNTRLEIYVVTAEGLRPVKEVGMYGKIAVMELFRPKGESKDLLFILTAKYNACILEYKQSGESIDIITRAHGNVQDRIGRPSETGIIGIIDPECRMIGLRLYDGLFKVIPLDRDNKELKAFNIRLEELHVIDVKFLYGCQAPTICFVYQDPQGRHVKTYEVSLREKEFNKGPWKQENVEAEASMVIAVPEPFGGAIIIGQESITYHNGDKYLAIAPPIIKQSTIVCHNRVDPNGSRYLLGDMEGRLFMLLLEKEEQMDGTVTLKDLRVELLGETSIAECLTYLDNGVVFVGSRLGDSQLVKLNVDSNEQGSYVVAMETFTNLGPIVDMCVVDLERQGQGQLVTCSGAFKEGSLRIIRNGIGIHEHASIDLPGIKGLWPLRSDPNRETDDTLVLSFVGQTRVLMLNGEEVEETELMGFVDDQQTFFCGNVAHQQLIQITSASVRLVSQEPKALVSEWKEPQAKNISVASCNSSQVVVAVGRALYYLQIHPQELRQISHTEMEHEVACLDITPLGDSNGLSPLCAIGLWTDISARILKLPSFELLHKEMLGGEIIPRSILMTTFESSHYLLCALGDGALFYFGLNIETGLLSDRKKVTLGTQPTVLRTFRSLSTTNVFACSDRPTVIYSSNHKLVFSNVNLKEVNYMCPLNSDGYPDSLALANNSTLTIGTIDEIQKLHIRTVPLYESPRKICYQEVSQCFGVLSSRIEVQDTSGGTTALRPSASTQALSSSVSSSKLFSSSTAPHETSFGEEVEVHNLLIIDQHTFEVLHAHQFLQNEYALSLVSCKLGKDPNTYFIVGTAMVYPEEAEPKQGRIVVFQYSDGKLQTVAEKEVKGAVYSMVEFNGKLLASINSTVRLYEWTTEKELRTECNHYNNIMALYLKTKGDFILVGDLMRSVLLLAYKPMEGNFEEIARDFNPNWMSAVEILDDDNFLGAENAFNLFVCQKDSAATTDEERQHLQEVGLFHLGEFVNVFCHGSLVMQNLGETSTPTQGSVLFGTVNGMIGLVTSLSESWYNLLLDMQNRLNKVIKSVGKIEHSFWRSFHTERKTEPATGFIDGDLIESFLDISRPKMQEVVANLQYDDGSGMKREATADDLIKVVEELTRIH
(The HiBiT peptide binds its large partner to form an active luciferase.)

The test system of another assay is Z-138 cells. As to the kind of experiment: Z-138 Proliferation Assay (Cell Titer-Glo). As to conditions: 72 hours; for Ymin (%): % remaining (percent of DMSO control); for EC50: Homo sapiens, Cell Titer-Glo, 4-parameter curve fit. The essentials: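 Z-138 cells (4,000 cells/well, IMDM + 10% FBS) exposed 72 h to 10-point 1:2 compound dilutions from 10,000 nM top, 0.1% DMSO. Viability read by CellTiter-Glo luminescence; EC50 from 4-parameter fit of percent of DMSO control.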
(In general: ATP-based viability assays read luminescence as a measure of living cells.)

For the next assay, the target named is T1, CK1α (Homo sapiens, UniProt P48729+Q96SW2).
T1 construct: CSNK1A1-HiBit KI HEK293(LgBit) Cells; host or cells: HEK293(LgBit) knock-in cells
T1 sequence (P48729 whole entry): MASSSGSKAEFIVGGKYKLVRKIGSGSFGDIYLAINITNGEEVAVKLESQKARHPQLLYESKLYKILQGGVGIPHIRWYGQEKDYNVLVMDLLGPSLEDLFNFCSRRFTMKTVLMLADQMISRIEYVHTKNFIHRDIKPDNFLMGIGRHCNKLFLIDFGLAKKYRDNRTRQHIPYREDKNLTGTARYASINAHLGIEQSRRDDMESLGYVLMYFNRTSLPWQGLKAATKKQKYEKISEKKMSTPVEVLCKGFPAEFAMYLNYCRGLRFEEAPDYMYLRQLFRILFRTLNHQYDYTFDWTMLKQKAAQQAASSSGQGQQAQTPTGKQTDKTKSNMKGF
T1 sequence (Q96SW2 whole entry): as the sequence (Q96SW2 whole entry) above
T1 sequence (Q16531 whole entry partner): as the sequence (Q16531 whole entry partner) above
Put plainly: HiBiT degradation assay, CK1α, Procedure A. The note with it: six hours. The essentials:
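Six-hour treatment at 37° C, ten doses between 10 μM and 0.005 μM, then HiBiT lytic luminescence. Fitted DC50 and Ymin.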

In the case of `CC(C)Cc1nc(-c2ccc3c(c2)CN(C2CCC(=O)NC2=O)C3=O)c(-c2ccccc2)o1` (stereo not drawn) [Example 732, 3-(5-(2-isobutyl-5-phenyloxazol-4-yl)-1-oxoisoindolin-2-yl)piperidine-2,6-dione], at GSPT1, the DC50 is < 25 nM and the “GSPT1 Ymin” value was “F (F = >75-100% remaining)”. Besides, in the assay with Z-138 cells, the “Ymin (%)” value is recorded as “D (0-10% remaining)” and the EC50 is < 10 nM. Moreover, at CK1α, the “CK1α Ymin” value is given as “C (C = 0-10% remaining)” and the DC50 is < 25 nM.
For the compound `CC(C)c1nc(-c2ccc3c(c2)CN(C2CCC(=O)NC2=O)C3=O)c(-c2ccccc2)n1C` (stereo not drawn) [Example 726, 3-(5-(2-isopropyl-1-methyl-5-phenyl-1H-imidazol-4-yl)-1-oxoisoindolin-2-yl)piperidine-2,6-dione], on GSPT1, the DC50 was ≥ 25 nM and the “GSPT1 Ymin” value is recorded as “F (F = >75-100% remaining)”. Moreover, in the assay with Z-138 cells, the “Ymin (%)” value was “D (0-10% remaining)” and the EC50 is < 10 nM. Besides, at CK1α, the “CK1α Ymin” value is reported as “C (C = 0-10% remaining)” and the DC50 was < 25 nM.
With `CCc1cn(-c2ccccc2)c(-c2ccc3c(c2)CN(C2CCC(=O)NC2=O)C3=O)n1` (stereo not drawn) [Example 730, 3-(5-(4-ethyl-1-phenyl-1H-imidazol-2-yl)-1-oxoisoindolin-2-yl)piperidine-2,6-dione], on GSPT1, the DC50 was < 25 nM and the “GSPT1 Ymin” value is “E (E = >25-75% remaining)”. In the assay with Z-138 cells, the “Ymin (%)” value is “D (0-10% remaining)” and the EC50 was < 10 nM. At CK1α, the “CK1α Ymin” value is listed as “C (C = 0-10% remaining)” and the half-maximal degradation concentration (DC50) was < 25 nM.
`CC(C)c1nc(-c2ccc3c(c2)CN(C2CCC(=O)NC2=O)C3=O)c(-c2ccccc2)o1` (stereo not drawn) [Example 733, 3-(5-(2-isopropyl-5-phenyloxazol-4-yl)-1-oxoisoindolin-2-yl)piperidine-2,6-dione]: at GSPT1, the DC50 was ≥ 25 nM and the “GSPT1 Ymin” value is “F (F = >75-100% remaining)”. Besides, in the assay with Z-138 cells, the “Ymin (%)” value is “D (0-10% remaining)” and the EC50 is < 10 nM. Besides, at CK1α, the “CK1α Ymin” value was “C (C = 0-10% remaining)” and the DC50 was < 25 nM.
Turning to `CC(C)c1cn(-c2ccccc2)c(-c2ccc3c(c2)CN(C2CCC(=O)NC2=O)C3=O)n1` (stereo not drawn) [Example 731, 3-(5-(4-isopropyl-1-phenyl-1H-imidazol-2-yl)-1-oxoisoindolin-2-yl)piperidine-2,6-dione], on GSPT1, the half-maximal degradation concentration (DC50) is < 25 nM and the “GSPT1 Ymin” value is on record as “E (E = >25-75% remaining)”. Further, in the assay on Z-138 cells, the “Ymin (%)” value was “D (0-10% remaining)” and the EC50 was < 10 nM. For the same compound, on CK1α, the “CK1α Ymin” value is reported as “C (C = 0-10% remaining)” and the DC50 is < 25 nM.
Regarding `O=C1CCC(N2Cc3cc(-c4cc(-c5ccccc5)n(C5CC5)n4)ccc3C2=O)C(=O)N1` (stereo not drawn) [Example 621, 3-(5-(1-cyclopropyl-5-phenyl-1H-pyrazol-3-yl)-1-oxoisoindolin-2-yl)piperidine-2,6-dione], on GSPT1, the DC50 was ≥ 25 nM and the “GSPT1 Ymin” value is “F (F = >75-100% remaining)”. Also, in the assay with Z-138 cells, the “Ymin (%)” value was “D (0-10% remaining)” and the EC50 is < 10 nM. For the same compound, at CK1α, the “CK1α Ymin” value is reported as “C (C = 0-10% remaining)” and the DC50 was < 25 nM.

Broadly, the DC50 is the midpoint of the concentration-degradation curve. Low readings indicate a more potent degrader, high ones a less potent degrader. As usually defined, the EC50 is the concentration at which the effect is half-maximal. High values mean weaker potency, low ones greater potency.
